Measurements taken from ChEMBL document CHEMBL1201862, “PubChem BioAssay data set” (2004).
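Exposure lasted 48 hours, with cells grown in 96-well plates and compounds tested at five concentrations. At the GI50, growth is halved.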 The source made the active and inactive calls. No stated cut-off is given here; in the data, active = GI50 up to about 1.1 µM and inactive = higher.

Key:
Assay in all cases: growth of human tumour cells (NCI), 48 h
786-0 = test system: 786-0
ACHN = test system: ACHN
CAKI-1 = test system: CAKI-1
CCRF-CEM = test system: CCRF-CEM
COLO 205 = test system: COLO 205
HOP-92 = test system: HOP-92
IGROV-1 = test system: IGROV-1
MDA-MB-435 = test system: MDA-MB-435
MOLT-4 = test system: MOLT-4
PC-3 = test system: PC-3
RPMI-8226 = test system: RPMI-8226
SK-MEL-28 = test system: SK-MEL-28
SK-MEL-2 = test system: SK-MEL-2
SN12C = test system: SN12C
SR = test system: SR
U-251 = test system: U-251
Hs-578T = test system: Hs-578T
NCI-H226 = test system: NCI-H226
SK-OV-3 = test system: SK-OV-3
TK-10 = test system: TK-10

Measured: GI50

N=C(N)NS(=O)(=O)c1ccc(NNc2c3ccccc3nc3c(C(=O)Nc4ccc(S(=O)(=O)Nc5ncccn5)cc4)cccc23)cc1
inactive: 786-0 31.6 µM | ACHN 31 µM | CAKI-1 37.8 µM | CCRF-CEM 30.8 µM | COLO 205 40.5 µM | HOP-92 67 µM | IGROV-1 18.2 µM | MDA-MB-435 43.2 µM | MOLT-4 38.9 µM | PC-3 33.7 µM | RPMI-8226 33.3 µM | SK-MEL-28 55.1 µM | SK-MEL-2 50.4 µM | SN12C 42.2 µM | SR > 10 µM | U-251 43.7 µM

CN(C)C(=O)C(NCCO)c1ccccc1 (centres undefined)
inactive: 786-0 > 100 µM | ACHN > 100 µM | CAKI-1 > 100 µM | COLO 205 > 100 µM | HOP-92 > 100 µM | Hs-578T > 100 µM | IGROV-1 72.6 µM | MDA-MB-435 79.4 µM | MOLT-4 22.4 µM | NCI-H226 > 100 µM | PC-3 89.1 µM | RPMI-8226 27.9 µM | SK-MEL-28 > 100 µM | SK-MEL-2 > 100 µM | SK-OV-3 > 100 µM | SN12C > 100 µM | TK-10 > 100 µM | U-251 90.6 µM

O=C(Nc1nnc(-c2c(Cl)c(Cl)c(Cl)c(Cl)c2-c2nc3cc(C(=O)c4ccccc4)ccc3[nH]2)o1)c1ccc(Cl)cc1
inactive: 786-0 30.3 µM | ACHN 30.7 µM | CAKI-1 40.7 µM | CCRF-CEM 6.27 µM | COLO 205 15.5 µM | HOP-92 20.5 µM | IGROV-1 29.2 µM | MDA-MB-435 6.31 µM | MOLT-4 13.6 µM | NCI-H226 26.4 µM | PC-3 25.1 µM | RPMI-8226 81.7 µM | SK-MEL-28 36.7 µM | SK-MEL-2 29.6 µM | SK-OV-3 40.2 µM | SN12C 17.9 µM | SR 4.88 µM | TK-10 51.9 µM | U-251 32 µM

CNNC1=NS(=O)(=O)c2cc(C#N)c(Cl)cc2S1
inactive: 786-0 > 10 µM | ACHN > 10 µM | CAKI-1 > 10 µM | CCRF-CEM > 10 µM | COLO 205 > 10 µM | Hs-578T > 10 µM | IGROV-1 > 10 µM | MDA-MB-435 > 10 µM | MOLT-4 > 10 µM | NCI-H226 > 10 µM | PC-3 > 10 µM | RPMI-8226 > 10 µM | SK-MEL-28 > 10 µM | SK-MEL-2 > 10 µM | SK-OV-3 > 10 µM | SN12C > 10 µM | TK-10 > 10 µM | U-251 > 10 µM

N#CC(NCCc1ccccc1)c1ccc(C(C#N)NCCc2ccccc2)cc1 (centres undefined)
inactive: 786-0 72.4 µM | ACHN > 100 µM | CAKI-1 > 100 µM | CCRF-CEM 17.9 µM | COLO 205 48 µM | HOP-92 > 100 µM | Hs-578T 71.8 µM | IGROV-1 > 100 µM | MDA-MB-435 33.8 µM | MOLT-4 32.6 µM | NCI-H226 > 100 µM | PC-3 > 100 µM | SK-MEL-28 48.5 µM | SK-MEL-2 > 100 µM | SK-OV-3 > 100 µM | SN12C 97.5 µM | TK-10 > 100 µM | U-251 8.17 µM

CN1C2=C(CC3=C1CC(C)(C)CC3=O)C(=O)CC(C)(C)C2
inactive: 786-0 > 100 µM | ACHN > 100 µM | CAKI-1 > 100 µM | CCRF-CEM > 100 µM | HOP-92 > 100 µM | Hs-578T > 100 µM | IGROV-1 > 100 µM | MOLT-4 > 100 µM | NCI-H226 > 100 µM | PC-3 > 100 µM | RPMI-8226 > 100 µM | SK-MEL-28 > 100 µM | SK-OV-3 > 100 µM | SN12C > 100 µM | SR > 100 µM | TK-10 > 100 µM | U-251 > 100 µM

O=C1C=C(NCCOCCO)C(=O)c2c(O)ccc(O)c21
inactive: 786-0 37.4 µM | ACHN 27.2 µM | CAKI-1 43.3 µM | CCRF-CEM 27.4 µM | COLO 205 17.1 µM | HOP-92 24.3 µM | Hs-578T 34.4 µM | IGROV-1 36.7 µM | MDA-MB-435 18.2 µM | MOLT-4 26.1 µM | NCI-H226 > 100 µM | PC-3 28.1 µM | RPMI-8226 22.7 µM | SK-MEL-28 69 µM | SK-MEL-2 20.1 µM | SK-OV-3 33.4 µM | TK-10 > 100 µM | U-251 30.5 µM

COc1cccc([C@@H]2C/C(=N\NC(=O)C(=O)N[C@@H](C)c3ccccc3)c3ccccc3N2)c1
inactive: 786-0 44.6 µM | ACHN 40.6 µM | CAKI-1 25.8 µM | CCRF-CEM > 100 µM | COLO 205 > 100 µM | HOP-92 30.5 µM | Hs-578T 23.7 µM | MDA-MB-435 4.82 µM | MOLT-4 4.1 µM | NCI-H226 > 100 µM | PC-3 > 100 µM | RPMI-8226 32.4 µM | SK-MEL-28 > 100 µM | SK-MEL-2 > 100 µM | SK-OV-3 > 100 µM | SN12C > 100 µM | TK-10 > 100 µM | U-251 > 100 µM

COC(=O)/C(=N\N)C(C(=O)C(=O)Nc1cc(Cl)ccc1Cl)c1nc2ccc([N+](=O)[O-])cc2nc1O (centres undefined)
inactive: 786-0 > 100 µM | ACHN 50.9 µM | CAKI-1 > 100 µM | CCRF-CEM > 100 µM | HOP-92 > 100 µM | Hs-578T 47.9 µM | IGROV-1 50.1 µM | MDA-MB-435 > 100 µM | MOLT-4 > 100 µM | NCI-H226 > 100 µM | PC-3 > 100 µM | RPMI-8226 > 100 µM | SK-MEL-28 > 100 µM | SK-MEL-2 > 100 µM | SK-OV-3 > 100 µM | SN12C > 100 µM | TK-10 > 100 µM | U-251 > 100 µM

Fc1ccc(-c2sc(-c3cccs3)cc2Cc2cccs2)cc1
inactive: 786-0 > 100 µM | ACHN > 100 µM | CAKI-1 > 100 µM | CCRF-CEM 91 µM | COLO 205 > 100 µM | HOP-92 > 100 µM | Hs-578T > 100 µM | IGROV-1 > 100 µM | MDA-MB-435 > 100 µM | MOLT-4 31.1 µM | NCI-H226 > 100 µM | SK-MEL-28 > 100 µM | SK-MEL-2 > 100 µM | SK-OV-3 > 100 µM | SN12C > 100 µM | TK-10 > 100 µM | U-251 > 100 µM

CCOC(=O)C(CC/C=C\c1ccccc1)N1CCC[C@H]1C(=O)OC (some centres undefined)
inactive: 786-0 > 100 µM | ACHN > 100 µM | CAKI-1 > 100 µM | CCRF-CEM 94.8 µM | COLO 205 > 100 µM | HOP-92 > 100 µM | IGROV-1 > 100 µM | MOLT-4 39.1 µM | NCI-H226 > 100 µM | RPMI-8226 29.7 µM | SK-MEL-28 > 100 µM | SK-MEL-2 > 100 µM | SK-OV-3 > 100 µM | SN12C > 100 µM | SR 40 µM | TK-10 > 100 µM | U-251 > 100 µM
